Experiments:
[1] = system: intracellular MRSA in MCF7 cells; test: Gentamicin protection assay with CFU count in MRSA-infected MCF7 cells; type: cell-based, Staphylococcus aureus; settings: 10 µM, n=7
Procedure: (§1) The cells were resuspended in cell culture medium without antibiotics, seeded with 10,000 cells/well into Costar flat-bottom 96-well plates (Corning, Amsterdam, the Netherlands), and were incubated overnight at 37°C/5% CO2. The next day, the bacteria were centrifuged at ≥1800 g for 15 min and resuspended in cold PBS + 5 mM ethylenediaminetetraacetic acid (EDTA). The number of CFUs present in the bacterial suspension was estimated from the optical density at 600 nm (OD600) by assuming 8x10^8 CFUs to be present in a bacterial suspension with OD600 = 1, based on prior titrations. The bacterial suspension was diluted in cell culture medium without antibiotics and added to the cells. Accuracy of the multiplicity of infection (MOI) was validated by plating serial dilutions of the MRSA inoculums on Difco TS agar plates (BD Biosciences). The calculated mean MOI throughout all experiments was 6.8 ± 4.6 (mean ± SD). Infected cells were centrifuged for 3 min at 150 g and incubated for 1 hour at 37°C/5% CO2. Next, the cells were incubated with fresh cell culture medium supplemented with 30 µg/ml gentamicin sulphate (Lonza BioWhittaker, Basel, Switzerland) for 15 min at 37°C/5% CO2 to kill residual extracellular bacteria. Infected cells were incubated overnight at 37°C/5% CO2 in cell culture medium in the presence of kinase inhibitors and 5 µg/ml gentamicin sulphate-containing medium to prevent the growth of extracellular bacteria. The solvent of the compounds, DMSO, was used at equal % v/v as a negative control. For the screen, each compound was tested in triplicate, on separate cell culture plates, resulting in triplicate values for each kinase inhibitor.
(§2) Infected cells were lysed in sterile water + 0.05% UltraPure SDS solution (Invitrogen, ThermoFisher Scientific) to release intracellular bacteria. Bacterial suspensions and lysates of cells infected with MRSA were 5-fold serially diluted and 10-μl drops were plated on square TS agar plates. The plates were left to dry and incubated overnight at 37°C/5% CO2.

[2] = system: HeLa, MelJuSo, A549, MCF7 and PMA-differentiated THP-1 cells; test: Light microscopy of cell morphology (cytopathogenic effects); type: cell-based, human; settings: for changes in cell morphology / cytopathogenic effects by light microscopy: 10 µM, HeLa, MelJuSo, A549, MCF7, THP-1 cells
[3] = system: intracellular MRSA in PMA-differentiated THP-1 cells; test: Gentamicin protection assay with CFU count in MRSA-infected PMA-differentiated THP-1 cells; type: cell-based, Staphylococcus aureus; settings: 10 µM, n=6
Procedure: as §1, with “Infected cells were incubated overnight at 37°C/5% CO2 in cell culture medium in the presence of kinase inhibitors and 5 µg/ml gentamicin sulphate-containing medium to prevent the growth of extracellular bacteria. The solvent of the compounds, DMSO, was used at equal % v/v as a negative control. For the screen, each compound was tested in triplicate, on separate cell culture plates, resulting in triplicate values for each kinase inhibitor.” left out

planktonic MRSA cultures = test: Bacterial growth assay in cell-free planktonic MRSA cultures (OD600); type: cell-based, Staphylococcus aureus; settings: Supplementary Figure S5
Procedure: […] The absorbance was measured using an EnVision plate reader (PerkinElmer). The plates were incubated at 37°C overnight and the absorbance was measured again the next day. Real-time measurement of bioluminescence by the MRSA-lux strain was performed in a white flat-bottom 96-wells plate using a SpectraMax i3x plate reader and an integration time set at 9000 ms.

EGFR = system: EGFR; design: method as in Elkins et al., 2016; settings: PKIS1, Caliper assay, ref Elkins et al., 2016; cited from earlier work
HER4 = system: HER4; design: method as in Elkins et al., 2016; settings: PKIS1, Caliper assay, ref Elkins et al., 2016; cited from earlier work
HER2 = system: HER2; design: method as in Elkins et al., 2016; settings: PKIS1, Caliper assay, ref Elkins et al., 2016; cited from earlier work
[4] = system: intracellular MRSA in A549 cells; test: Gentamicin protection assay with CFU count in MRSA-infected A549 cells; type: cell-based, Staphylococcus aureus; settings: 10 µM, n=7
Procedure: as §1, with “Infected cells were incubated overnight at 37°C/5% CO2 in cell culture medium in the presence of kinase inhibitors and 5 µg/ml gentamicin sulphate-containing medium to prevent the growth of extracellular bacteria. The solvent of the compounds, DMSO, was used at equal % v/v as a negative control. For the screen, each compound was tested in triplicate, on separate cell culture plates, resulting in triplicate values for each kinase inhibitor.” left out

HeLa cells = type: cell-based, human; settings: for cytotoxicity / cell viability by LDH-release: 30 µM
Procedure: Before harvesting or lysing the cells of the intracellular infection assays, the supernatant from the cells was collected to quantify LDH release by the cells using the LDH cytotoxicity detection kit (Roche, Merck, Darmstadt, Germany) according to the manufacturer’s instructions. Triton X-100 results in maximum LDH release by permeabilizing the cells and was used as positive control. Quantification was performed with the EnVision plate reader.

[5] = system: intracellular MRSA in HeLa cells; test: Gentamicin protection assay with CFU count in MRSA-infected HeLa cells; type: cell-based, Staphylococcus aureus; settings: for reduction of intracellular bacterial burden (CFU): validation of 17 hit compounds, Figure 2A; for reduction in bacterial burden (CFU): Figure 2B, n=17
Procedure: as §1, §2

AMPK [6] = test: Phosphorylation of ACC1 at Ser80 by flow cytometry (readout for AMPK activity); type: cell-based, human; settings: MRSA-infected HeLa cells
Procedure: To determine the expression of the HER kinase family, cells were harvested using PBS + 5 mM EDTA and fixed in 1% paraformaldehyde for 20 min at RT. To determine phosphorylation of ACC1 at Ser80, cells were harvested by incubation in pre-warmed trypsin-EDTA, which was neutralized after 5 min with an equal volume of FBS, and fixed in 4% ultra-pure formaldehyde (Bio Trend, Cologne, Germany) for 20 min at RT. For intracellular staining, the cells were permeabilized in ice-cold methanol for 20 min. Subsequently, the cells were blocked in PBS + 0.5% bovine serum albumin + 0.005% NaN3 (both from Sigma-Aldrich; FACS buffer) + 5% human serum for 5 min. The cells were labelled with primary and secondary antibodies (listed in Supplementary Table S1 ) in FACS buffer. Samples were measured on the FACSLyric and analysed using FlowJo 10 (FlowJo LCC, Ashland, OR, USA).

AMPK [7] = test: Phosphorylation of AMPK at Thr172 by western blot; type: cell-based, human; settings: MRSA-infected HeLa cells
Procedure: HeLa cells were seeded with 100,000 cells/well in 24-wells plates. In short, the cells were lysed in EBSB buffer (10% v/v glycerol, 3% SDS, 100 mM Tris-HCl, pH 6.8) supplemented with one tablet of cOmplete EDTA-free protease inhibitor cocktail (Sigma-Aldrich) and proteins were denaturated at 95°C for 5 min. Protein concentrations were determined using a Pierce™ BCA protein assay kit (Thermo Fisher Scientific). Samples were diluted in Laemmli sample buffer and loaded on a 15-well 4–20% Mini-PROTEAN® TGX™ Precast Protein Gel for electrophoresis (both from Bio-Rad, Hercules, CA, USA). […] Membranes were blocked for 1h in PBS supplemented with 5% w/v non-fat dry milk. Next, the membranes were cut and each protein was separately stained with primary antibodies against actin and LC3B in PBS supplemented with 5% w/v non-fat dry milk, or against AMPKα and AMPKα-pThr172 in PBS supplemented with 5% BSA (antibodies listed in Supplementary Table S1 ). Membranes were stained with secondary antibodies in PBS supplemented with 5% w/v non-fat dry milk. After each staining, membranes were washed four times in PBS + 0.1% Tween20. Prior to revelation, the membranes were incubated for 10 min in enhanced chemiluminescence (ECL) Prime Western Blotting System reagent (GE Healthcare, Hoevelaken, The Netherlands). […] Protein bands were quantified using Fiji software ([Schindelin et al., 2012]).

Compound | reduction in bacterial burden (CFU) [1] | changes in cell morphology / cytopathogenic effects by light microscopy [2] | effect on CFU counts [3] | activity on bacterial burden (CFU) [4] | cytotoxicity / cell viability by LDH-release (HeLa cells; MRSA-infected HeLa cells) | reduction of intracellular bacterial burden (CFU) ([5]; 10 µM) [%] | reduction in bacterial burden (CFU) ([5]; HeLa cells, 10 µM) [%] | lowest concentration acting against intracellular MRSA (titration) ([5]; MRSA-infected HeLa cells) [nM] | further results
O=S(=O)(CCNCc1ccc(-c2ccc3ncnc(Nc4ccc(OCc5cccc(F)c5)c(Cl)c4)c3c2)o1)c1ccccc1 [GW633459A] | reductions in CFU counts | not observed | reductions in CFU counts | not active | only marginally affected | 59 | 50 | 10 | effect on planktonic MRSA growth (direct antibiotic effect) (planktonic MRSA cultures; up to 100 µM concentration): not observe any direct antibacterial effects; % inhibition at 1 µM EGFR (EGFR): 83%; % inhibition at 1 µM HER4 (HER4): 89%; % inhibition at 1 µM HER2 (HER2): 60%; CFU (% of DMSO) at 10 µM ([5]; 10 µM, MRSA-infected HeLa cells): 41.2 % of DMSO
COc1ccc2[nH]c3c4[nH]c5ccc(OC)cc5c4c4c(c3c2c1)C(=O)NC4=O [GW296115X] | 75% | slight changes in cell morphology | – | – | limited cytotoxicity | 67 | 70 | – | direct antibiotic effects against MRSA (planktonic MRSA cultures; planktonic cultures): not the case; cell viability of MRSA-infected cells (HeLa cells; HeLa cells, Figure 5K): able to fully restore the loss in cell viability; cell viability of MRSA-infected cells (LDH-release) (HeLa cells; MRSA-infected HeLa cells, 10 µM, Figure 2G): rescued the loss of viability; host cell viability when bafilomycin A1 is added (HeLa cells; MRSA-infected HeLa cells, combined with bafilomycin A1 (100 nM), Figure 5I): reverted; ACC1 phosphorylation at Ser80 (AMPK [6]): increased ACC1 phosphorylation; bacterial killing when bafilomycin A1 is added ([5]; HeLa cells, combined with bafilomycin A1 (100 nM), Figure 5H): reverted; reduction of the intracellular bacterial burden, maximal ([5]; MRSA-infected HeLa cells, titration): up to 80%; Emax ([5]; Staphylococcus aureus, MRSA, HeLa): -80%; IC50 ([5]; Staphylococcus aureus, MRSA, HeLa, read-out: IC50 for reduction of intracellular bacterial burden): 159 nM; AMPK phosphorylation at Thr172 (AMPK [7]): significantly increased AMPK phosphorylation at Thr172
CC(C)c1nc(-c2cccc(NS(=O)(=O)c3c(F)cccc3F)c2F)c(-c2ccnc(Nc3ccc(N4CCOCC4)nc3)n2)s1 [GSK2008607A] | reductions in CFU counts | cytopathogenic effects were observed | reductions in CFU counts | not active | became cytotoxic | 56 | 72 | 10 | cytopathogenic effects in HeLa cells ([2]; 1 µM): cytopathogenic effects were already observed
